Measurements: ChEMBL document CHEMBL1201862, “PubChem BioAssay data set” (2004)
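Exposure lasted 48 hours, with cells grown in 96-well plates and compounds tested at five concentrations. GI50 = concentration required for 50% inhibition of growth.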 Activity calls are given as the source filed them. Cut-off read from the data, not from the text of the source: active = GI50 up to about 1.1 µM and inactive = higher. Square brackets hold non-standard residues; d marks the D form. Peptide text beside a SMILES is read from it. Phe(4-Cl) = N[CH](Cc1ccc(Cl)cc1)C(=O)O; 2Nal = N[CH](Cc1ccc2ccccc2c1)C(=O)O; 3Pal = N[CH](Cc1cccnc1)C(=O)O

Columns and labels:
Assay in all cases: NCI-60 cell line screen, 48 h
A549 = system: A549
ACHN = system: ACHN
CAKI-1 = system: CAKI-1
COLO 205 = system: COLO 205
DU-145 = system: DU-145
HOP-62 = system: HOP-62
KM12 = system: KM12
LOX IMVI = system: LOX IMVI
NCI-H226 = system: NCI-H226
NCI-H522 = system: NCI-H522
OVCAR-4 = system: OVCAR-4
PC-3 = system: PC-3
RPMI-8226 = system: RPMI-8226
SK-MEL-2 = system: SK-MEL-2
SK-OV-3 = system: SK-OV-3
SR = system: SR
SW-620 = system: SW-620
T47D = system: T47D
U-251 = system: U-251
MDA-N = system: MDA-N

Measured: GI50

S=C1c2ccccc2N=C(NC2CCCC2)C2CSCN12 (configuration not stated)
inactive: A549 > 100 µM | ACHN > 100 µM | CAKI-1 > 100 µM | COLO 205 > 100 µM | DU-145 > 100 µM | HOP-62 > 100 µM | KM12 20.4 µM | LOX IMVI 75.2 µM | NCI-H226 88.5 µM | NCI-H522 37.5 µM | OVCAR-4 > 100 µM | PC-3 40.6 µM | RPMI-8226 75.2 µM | SK-MEL-2 > 100 µM | SK-OV-3 > 100 µM | SR 39.6 µM | SW-620 > 100 µM | T47D 48.3 µM | U-251 95.5 µM

Oc1c(Cl)c(Cl)c(O)c(CCNc2nccs2)c1Cl
inactive: A549 21.6 µM | ACHN 6.44 µM | CAKI-1 11.4 µM | COLO 205 11.3 µM | DU-145 3.67 µM | HOP-62 19.1 µM | KM12 6.85 µM | NCI-H522 2.02 µM | OVCAR-4 38.1 µM | PC-3 17.2 µM | SK-MEL-2 22.3 µM | SK-OV-3 16.3 µM | SR 4.81 µM | SW-620 3.3 µM | T47D 5.48 µM | U-251 11.3 µM

CC(=O)NC(Cc1ccc2ccccc2c1)C(=O)NC(Cc1ccc(Cl)cc1)C(=O)NC(Cc1cccnc1)C(=O)NC(CO)C(=O)NC(Cc1ccc(O)cc1)C(=O)NC(CCCN=C(N)N)C(=O)NC(CC(C)C)C(=O)NC(CCCN=C(N)N)C(=O)N1CCCC1C(=O)NC(C)C(N)=O (configuration not stated) (Ac-[2Nal][Phe(4-Cl)][3Pal]SYRLRPA-NH2; configuration not given here)
inactive: A549 > 100 µM | ACHN > 100 µM | CAKI-1 > 100 µM | COLO 205 > 100 µM | DU-145 > 100 µM | HOP-62 > 100 µM | KM12 > 100 µM | MDA-N > 100 µM | NCI-H226 > 100 µM | NCI-H522 > 100 µM | OVCAR-4 > 100 µM | PC-3 > 100 µM | RPMI-8226 > 100 µM | SK-MEL-2 > 100 µM | SR > 100 µM | SW-620 > 100 µM | U-251 > 100 µM

COC(=O)/C=C/N1CC1
inactive: A549 > 10 µM | ACHN > 10 µM | CAKI-1 > 10 µM | COLO 205 2.19 µM | DU-145 > 10 µM | HOP-62 > 10 µM | KM12 > 10 µM | NCI-H226 > 10 µM | NCI-H522 > 10 µM | OVCAR-4 4.82 µM | PC-3 3.12 µM | RPMI-8226 > 10 µM | SK-MEL-2 > 10 µM | SK-OV-3 > 10 µM | SR > 10 µM | T47D > 10 µM | U-251 5.41 µM

COC1=CC2C(c3cc4ccccc4n3S(=O)(=O)c3ccccc3)CC1CN2C(=O)OCc1ccccc1 (configuration not stated)
inactive: A549 20.5 µM | ACHN 28.6 µM | CAKI-1 35.2 µM | COLO 205 16.4 µM | DU-145 29.2 µM | HOP-62 40.4 µM | KM12 26.9 µM | LOX IMVI 24.8 µM | MDA-N 34.5 µM | NCI-H226 27.4 µM | NCI-H522 18 µM | OVCAR-4 26.1 µM | PC-3 29.3 µM | RPMI-8226 17.2 µM | SK-MEL-2 23.6 µM | SK-OV-3 28.8 µM | SW-620 37.6 µM | U-251 37.3 µM

CC1=NN(c2nc(N)nc(C(C)Cl)n2)C(C)(C)C1 (configuration not stated)
inactive: ACHN > 100 µM | CAKI-1 > 100 µM | COLO 205 > 100 µM | DU-145 > 100 µM | HOP-62 > 100 µM | KM12 > 100 µM | LOX IMVI > 100 µM | NCI-H226 > 100 µM | OVCAR-4 > 100 µM | PC-3 > 100 µM | RPMI-8226 > 100 µM | SK-MEL-2 > 100 µM | SK-OV-3 > 100 µM | SR > 100 µM | SW-620 > 100 µM | T47D > 100 µM | U-251 > 100 µM

O=C(NCCN1CCOCC1)c1ccc2cc(C(=O)N3CC(CCl)c4ccc([N+](=O)[O-])cc43)[nH]c2c1 (configuration not stated)
inactive: A549 5.19 µM | ACHN 12.4 µM | CAKI-1 24.2 µM | COLO 205 25 µM | DU-145 17.5 µM | HOP-62 17.1 µM | KM12 23.1 µM | LOX IMVI 2.63 µM | NCI-H226 27.3 µM | NCI-H522 4.67 µM | OVCAR-4 8.77 µM | PC-3 15 µM | RPMI-8226 2.43 µM | SK-MEL-2 16 µM | SK-OV-3 16.1 µM | SW-620 20.1 µM | T47D 26.2 µM | U-251 9.66 µM

CC1(C)OCC(C(O)C2OC(C)(C)OC2C=O)O1 (configuration not stated)
inactive: A549 > 100 µM | ACHN > 100 µM | COLO 205 > 100 µM | DU-145 > 100 µM | HOP-62 > 100 µM | KM12 > 100 µM | LOX IMVI > 100 µM | MDA-N > 100 µM | NCI-H226 > 100 µM | OVCAR-4 > 100 µM | PC-3 > 100 µM | RPMI-8226 > 100 µM | SK-MEL-2 > 100 µM | SK-OV-3 > 100 µM | SR > 100 µM | SW-620 > 100 µM | U-251 > 100 µM

COc1nc(N)c(C#N)c(C#N)c1C#N
inactive: A549 > 10 µM | ACHN > 10 µM | CAKI-1 > 10 µM | COLO 205 > 10 µM | DU-145 > 10 µM | HOP-62 > 10 µM | KM12 > 10 µM | LOX IMVI > 10 µM | MDA-N > 10 µM | NCI-H522 > 10 µM | OVCAR-4 > 10 µM | PC-3 > 10 µM | RPMI-8226 > 10 µM | SK-OV-3 > 10 µM | SR > 10 µM | SW-620 > 10 µM | U-251 > 10 µM

c1ccc2sc(C3(N4CCCCCC4)CCCCC3)cc2c1
inactive: A549 35.2 µM | ACHN 30.8 µM | CAKI-1 36.5 µM | COLO 205 16 µM | DU-145 29.4 µM | HOP-62 26.2 µM | KM12 16.1 µM | LOX IMVI 20.6 µM | MDA-N 28.9 µM | NCI-H226 22.6 µM | NCI-H522 21.1 µM | OVCAR-4 28.4 µM | SK-OV-3 29 µM | SW-620 18.2 µM | U-251 19.2 µM

Cc1nc(C(N)=S)sc1C(/C=C/c1ccc(Cl)c(Cl)c1)=N/NC(C)(C)C
inactive: A549 > 100 µM | ACHN > 100 µM | CAKI-1 > 100 µM | COLO 205 > 100 µM | DU-145 > 100 µM | KM12 > 100 µM | LOX IMVI > 100 µM | MDA-N > 100 µM | NCI-H226 56.5 µM | NCI-H522 75.3 µM | OVCAR-4 88.5 µM | PC-3 > 100 µM | SK-MEL-2 > 100 µM | SK-OV-3 > 100 µM | SW-620 > 100 µM | U-251 > 100 µM
